Values quoted from earlier work, collected in paper PMC4139154 (Biochemistry, 2014).

What was measured:
nNOS = settings: read-out: Kd of imidazole for nNOS
eNOS = settings: read-out: Kd of imidazole for eNOS
iNOS = settings: read-out: Kd of imidazole for iNOS

- Kd (nNOS): 160 µM
- Kd (eNOS): 150 µM
- Kd (iNOS): 42 µM
Structure (SMILES): c1c[nH]cn1 [imidazole]
